In US20230181472A1, “PROCESS OF MAKING IVABRADINE HYDROCHLORIDE DRUG PRODUCT” (Amgen Inc., priority 2018, published 2023):
Counter-ions that a name gives are not always drawn.

Assay: FT-Raman peak width (FWHM) at 705 cm^−1 as a measure of amorphous ivabradine hydrochloride
Type: physicochemical
Conditions: peak heights normalized at 705 cm^−1, broader peak = more amorphous content
Excerpt: During characterization of the ivabradine hydrochloride chrystalline forms, Fourier Transform Raman Spectroscopy was used to evaluate different peak shapes. A Thermo Scientific Nicolet NXR FT-Raman equipped with liquid nitrogen cooled germanium (Ge) detector (Thermo Scientific) was used for FT-Raman signal collection. Peak broadening was most defined at a Raman shift of 705 cm^−1. The peak heights were normalized at 705 cm^−1 and the width of the peak was characterized as full width at half maximum (FWHM). Table 3 highlights the FWHM of pure tetrahydrate and amorphous drug substance with an approximate doubling of peak width for purely amorphous ivabradine hydrochloride. […] Modifying the process conditions as described herein produced FWHM values of 10.3 and 9.6 cm^−1 for the 5 mg and 7.5 mg drug products respectively showing the significant reduction in the amount of amorphous ivabradine hydrochloride present in the drug product.

COc1cc2c(cc1OC)CC(=O)N(CCCN(C)C[C@H]1Cc3cc(OC)c(OC)cc31)CC2 [Ivabradine hydrochloride amorphous (pure)]
FWHM (cm^−1) of 705 cm^−1 peak: 16.3 cm⁻¹

COc1cc2c(cc1OC)CC(=O)N(CCCN(C)C[C@H]1Cc3cc(OC)c(OC)cc31)CC2 [Ivabradine hydrochloride tetrahydrate (pure)]
FWHM (cm^−1) of 705 cm^−1 peak: 8.4 cm⁻¹
